Values joined by “and” are separate entries in the source; they are usually repeats but may differ in a detail not shown here. Equal values may be shown once. Ends that are not written are not given here.
Columns and labels:
Derlin-1 = Derlin-1 knockdown protein verification by Western blot in MoDCs; type: cell-based, human
Source text: FIG. 9. Derlin-1 siRNA knocked down Derlin-1 translation in dendritic cells and B and T cell tumors by western blots. (A) Comparison of two different PEI reagent. Viromer blue vs Viromer red with respect to Cy3-labeled siRNA (B) and toxicity (C). Derlin-1 Knockdown Protein Verification by Western Blot (A). Confirms the knockdown of protein levels in MoDCs by Derlin-1 siRNA #2. For Lanes 1, 2, 5, and 6, the respective knockdowns were 49%, 57%, 67%, and 72%. Scramble included at concentration of 25 nM in wells (3) and (7). Wells (4) and (8) contain RPMI medium only. Mouse Anti-Derlin-1 mAb added at concentration of 1:1000 and Goat Anti-mouse IgG1 added at 1:10,000. (B) Transfection Ability of Viromer red/blue vs Lipofectamine RNAiMax. TAP-deficient T2-cells transfected with cy3-conjugated siRNA at 10 nM using manufacturer's recommended protocol for each reagent. Cells were stained, fixed, and detected 24 hours after transfection. PE laser was used to detect cells on BD LSR II. A shift to the right indicates a more efficient transfection reagent. (C) Cytotoxicity of Viromer RED/BLUE vs Lipofectamine RNAiMax. Extracellular staining of T2 cells with Annexin V was used to determine the number of cells undergoing active apoptosis after transfection with each reagent. BV421 laser was used to detect cells on BD LSR II. Cells were stained, fixed, and detected 24 hours after transfection.
(§1) Derlin-1 forms an integral part of the […] machinery required for transporting classical MHCI, e.g., HLA-A, -B, -C for proteasome degradation. […] In contrast, the protein band of Derlin-1 is entirely missing in Derlin-1 siRNA-treated MoDCs. Transfection of the primary cells were performed using PEI reagents (Viromer Blue vs. Viromer Red). The embodiment of the invention is three-fold. One aspect of the embodiment resides in treating APC with Derlin-1 RNA interference to prevent the generation of endogenous leader peptide as well as to cause dissociation of the HLA-E bound endogenous leader peptides so that Derlin-1-treated APC can be fully loaded with the HLA-E vaccines in the presence of the second costimulatory signal for immune induction.

Derlin-1 mRNA [1] = experiment: Derlin-1 mRNA knockdown by siRNA in B721.221 cells (qPCR, ΔΔCt); type: cell-based, human; conditions: 6 hours
Description: (§2) Table 1: Summary of Derlin-1 Knockdowns with Various siRNAs. Cells transfected in 12 well plate at 60%-80% confluency. one ul Viromer blue was used per 1 ml final volume. Cells were lysed via centrifugation and resuspended in TRI reagent at time points of either 6 h, 24 h, and 48 h. Lysates were split for both protein verification and qPCR. Knockdowns are estimated using the ΔΔCt method. […] Anti-Derlin-1 siRNA was designed using MITs website (sirna.wi.mit.edu) and siRNA design software (dharmacon.horizondiscovery.com/rnai/sirna). SiRNA were chosen based on the criteria that they would bind no more than 15 nucleotides on off-target mRNA and that they would be capable of knockdown for all four of the Derlin-1 mRNA isoforms. Additionally, siRNAs with 40-60% GC content, no more than 3 identical nucleotides in a row, and 3′ UU overhangs were used. The first siRNA (SEQ ID NO: 65, 5′-[…]-3′) was purchased from TriLink Biotechnologies and the second (SEQ ID NO: 66, 5′-[…]-3′) was purchased from Horizon Discovery. A third, modified siRNA with sequence 5′-SEQ ID NO: 67, O′me/G/O′me/[…]-3′ and DNA bases on the 1st and 8th nucleotide of the antisense strand was also designed and purchased from Horizontal Discovery. Scramble siRNAs were purchased from Horizontal Discovery (D-001810-10-05, ON-TARGET plus Non-targeting Pool). […]

Derlin-1 mRNA [2] = experiment: Derlin-1 mRNA knockdown by siRNA in T2 cells (qPCR, ΔΔCt); type: cell-based, human; conditions: for Derlin-1 mRNA knockdown (KD): 6 Hours
Description: as §2

Derlin-1 mRNA [3] = experiment: Derlin-1 mRNA knockdown by siRNA in monocyte-derived dendritic cells (qPCR, ΔΔCt); type: cell-based, human; conditions: for Derlin-1 mRNA knockdown (KD): MODC
Description: Table 1: Summary of Derlin-1 Knockdowns with Various siRNAs. Cells transfected in 12 well plate at 60%-80% confluency. one ul Viromer blue was used per 1 ml final volume. Cells were lysed via centrifugation and resuspended in TRI reagent at time points of either 6 h, 24 h, and 48 h. Lysates were split for both protein verification and qPCR. Knockdowns are estimated using the ΔΔCt method. […] Anti-Derlin-1 siRNA was designed using MITs website (sirna.wi.mit.edu) and siRNA design software (dharmacon.horizondiscovery.com/rnai/sirna). SiRNA were chosen based on the criteria that they would bind no more than 15 nucleotides on off-target mRNA and that they would be capable of knockdown for all four of the Derlin-1 mRNA isoforms. Additionally, siRNAs with 40-60% GC content, no more than 3 identical nucleotides in a row, and 3′ UU overhangs were used. The first siRNA (SEQ ID NO: 65, 5′-[…]-3′) was purchased from TriLink Biotechnologies and the second (SEQ ID NO: 66, 5′-[…]-3′) was purchased from Horizon Discovery. A third, modified siRNA with sequence 5′-SEQ ID NO: 67, O′me/G/O′me/[…]-3′ and DNA bases on the 1st and 8th nucleotide of the antisense strand was also designed and purchased from Horizontal Discovery. Scramble siRNAs were purchased from Horizontal Discovery (D-001810-10-05, ON-TARGET plus Non-targeting Pool).
as §1

HLA-G [4] = experiment: Surface HLA-G expression of CD8 T cells co-cultured with peptide-pulsed MoDCs (FACS); type: cell-based, human; conditions: immature and mature MoDC pulsed with A2 peptides of IgE epitope, SR11237 100 nmol/L, co-culture 5 days
Description: FIG. 7. Modulation of HLA-G by RXR agonist. Surface HLA-G expression of CD8 T cells was observed induced by RXRα agonist, SR11237 (100 nmol/L)-treated immature (A) and mature (B) MoDCs in presence of A2 mix peptides (Biomatik). MoDCs isolated from A2 type of PBMCs, were cultured in 10% FBS RPMI with 200 U/ml IL-4 and 100 U/ml GM-CSF for 5 days as immature MoDCs and then proceeded for maturation with addition of cytokines cocktail containing TNFα (10 ng/ml), PGE2 (1 μg/ml), IL-6 (150 ng/ml) and IL-1β (5 ng/ml) (Biolegend) for another two days. Both mature and immature MoDC were incubated with SR11237 for 2 days and pulsed with A2 peptides of IgE epitope for 4 hr. Then MoDCs were co-cultured in anti-CD3 (10 μg/ml) coated plate for 5 days with T cells isolated from PBMCs by adhering PBMC to 100×20 mm plate and collecting suspended cells. Cells were then collected and stained with Alex Fluor 488-conjugated human CD8 and PE-Cy 7-conjugated human HLA G followed by fixation with 2% paraformaldehyde. Phenotype and HLA G expression of T cells were performed by using a FACS, LRSII flow cytometry, data were processed as describe above.

HLA-G [5] = experiment: Surface HLA-G expression in immature MoDC cells (FACS); type: cell-based, human; conditions: 100 nM SR11237, 100 nM Bexarotene or Interferon-β 1,000 U, 4 days
HLA-E = experiment: Surface HLA-E expression in immature MoDC cells (FACS); type: cell-based, human; conditions: 100 nM SR11237, 100 nM Bexarotene or Interferon-β 1,000 U, 4 days
Description: FIG. 5. […] MoDCs were then collected and stained with fluorescence-conjugated antibody; APC-conjugated anti-CD83 (Biolegend) and PE-conjugated HLA-E (Biolegend) followed by fixation with 2% paraformaldehyde. Phenotype and HLA-E expression of MoDCs were performed by using a FACS, LRSII flow cytometry and the data were processed by using the Flowjo software.

the three HLA-E preps [6] = experiment: ELISA: renatured complex captured on anti-HLA-E coated plate, bound biotinylated peptide detected with HRP-avidin; peptide at 1.0 µg/ml
the three HLA-E preps [7] = experiment: ELISA: renatured complex captured on anti-HLA-E coated plate, bound biotinylated peptide detected with HRP-avidin; peptide at 0.1 µg/ml

For “5′-GGACUUGGGAGGAAGAAAUUU-3′ (listed as RNA, chemistry not given here; listed as Homo sapiens) [Derlin siRNA #2]”, the “Derlin-1 knockdown, FIG. 9 Western blot” value (Derlin-1; Lane 1) was 49%, the “Derlin-1 knockdown, FIG. 9 Western blot” value (Derlin-1; Lane 2) was 57% and the “Derlin-1 knockdown, FIG. 9 Western blot” value (Derlin-1; Lane 5) was 67%. The “Derlin-1 knockdown, FIG. 9 Western blot” value (Derlin-1; Lane 6) was 72%, the “Derlin-1 mRNA knockdown (KD)” value (Derlin-1 mRNA [1]; B721.221, 5 nM siRNA) was 52% and the “Derlin-1 mRNA knockdown (KD)” value (Derlin-1 mRNA [1]; B721.221, 10 nM siRNA) was 50%. The “Derlin-1 mRNA knockdown (KD)” value (Derlin-1 mRNA [2]; T2, 2.5 nM siRNA) was 62%, the “Derlin-1 mRNA knockdown (KD)” value (Derlin-1 mRNA [2]; T2, 5 nM siRNA) was 43% and the “Derlin-1 mRNA knockdown (KD)” value (Derlin-1 mRNA [2]; T2, 10 nM siRNA) was 34%. The “effectiveness in reducing Derlin-1 mRNA levels, compared among siRNAs” value (Derlin-1 mRNA [2]; T2 cells) was “most effective”, the “Derlin-1 mRNA knockdown (KD)” value (Derlin-1 mRNA [3]; 25 nM siRNA, Day 1) was 49% and the “Derlin-1 mRNA knockdown (KD)” value (Derlin-1 mRNA [3]; 25 nM siRNA, Day 2) was 67%. For the same molecule, the “Derlin-1 mRNA knockdown (KD)” value (Derlin-1 mRNA [3]; 50 nM siRNA, Day 1) was 57%, the “Derlin-1 mRNA knockdown (KD)” value (Derlin-1 mRNA [3]; 50 nM siRNA, Day 2) was 72% and the “effectiveness in reducing Derlin-1 mRNA levels, compared among siRNAs” value (Derlin-1 mRNA [3]; monocyte-derived dendritic cells) was “most effective”.

With `CC1(C)CCC(C)(C)c2cc(C3(c4ccc(C(=O)O)cc4)OCCO3)ccc21` [SR11237, reference compound] the “HLA G expression in CD8+ T cells” value (HLA-G [4]) was “no further increase”, the “HLA-G expression of immature MoDC cells” value (HLA-G [5]) was “little or no effect” and the “HLA-E expression of immature MoDC cells” value (HLA-E) was “dramatically induced”.

B1: biotinylated HLA-A2 leader peptide (SEQ ID NO: 50, …) (peptide)
peptide: NPRKVTAYL
modifications: also: biotinylated, position not given here
For B1, the OD (the three HLA-E preps [6]) was 0.2 OD and > 0.3 OD, the fold increment of OD (against the 0.02 OD at 0.1 µg/ml peptide) (the three HLA-E preps [6]) was 10 fold and 15 fold and the OD (the three HLA-E preps [7]) was 0.02 OD.
